{
  "source": "patent US9073985B2",
  "about": "“Methods and products for treating proliferative diseases” (The Regents of the University of Colorado, a body corporate, priority 2008, dated 2015)",
  "tested_on": "melanoma cells",
  "experiment": "In vitro treatment of tumor cells in culture, flow cytometry (cell cycle analysis, cell death)",
  "type": "cell-based",
  "settings": "melanoma cells treated in vitro",
  "procedure": "Tumor cells (B16.F1, NIT-1, or MCF7) were thawed from liquid nitrogen. The tumor cells were transferred into a 15 milliliter (ml) conical tube using a sterile bulb pipette. Using a balance, the tubes were balanced with cells and spun in the centrifuge. The liquid was removed using the vacuum, leaving the pellet of cells. The cells were mixed using two mls of the RPMI. In a 24 well plate, 1 ml of RPMI was placed in each well. One ml of cells was placed into the first well and the second ml was missed into the second well, then one ml was transferred from the second well into the third. The process was repeated until one ml will remain for the last well (serial dilutions). After two to three days the cells were confluent enough to transfer from a well into a flask. After around 24 hours the treatments were added to the appropriate flasks (control, chloroquine, Avastin, both). After 48 hrs. the cells were stained using lysotracker and propidium idodide. The plate was run in the flow cytometer to check the growth arrest and the amount of lysosomic activity as well as the amount of cell death.",
  "data": [
    {"substance": "avastin: humanized monoclonal antibody against VEGF-A, trade name Avastin, Genentech/Roche", "values": [
      {"measurement": "growth arrest by cell cycle analysis", "value": "growth arresting the melanoma cells in G0-G1 phase"}
    ]}
  ]
}
